# Patent publication US8821922B2, “Compositions and methods for polymer-caged liposomes” (Northwestern University, priority 2007, dated 2014)
# System: KB epidermoid carcinoma cells
# Test: Cytotoxicity study of doxorubicin-loaded liposomes (Guava ViaCount Assay)
# Assay type: cell-based
# Settings: Homo sapiens, 2 h exposure, further 48 h in fresh medium, viable cells counted by Guava ViaCount
# Experimental: Cytotoxictity assay were conducted using the Guava ViaCount Assay system.
# Initially, acetylene-functionalized PCLs were prepared using propargyl-modified diamine cross-linkers. Azido-poly(ethylene glycol)-modified folates were then conjugated to the acetylene groups on the surface of PCLs catalyzed by Cu(I) (FIG. 9) to present folate groups on the PCL surface. The folate conjugation to doxorubicin-loaded PCLs indeed increased the drug efficacy against cancer cells as shown through an in vitro model study against KB epidermoid carcinoma cells.
# KB cells were continuously cultured in folic acid-free medium supplemented with 10% heat-inactivated fetal bovine serum at 37° C. in a humidified atmosphere containing 5% CO2. The cells were seeded into several 48-well plates at 100,000 cells per well. The plates were then returned to the incubator and the cells were allowed to grow to confluence for 24 h. The media in the wells were replaced with the pre-prepared growth medium-drug-loaded PCL mixture (200 μL of solution at the appropriate Doxorubicin concentrations). The PCL-treated cell cultures were then further incubated for 2 h in a humidified atmosphere containing 5% CO2 at 37° C., after which the growth medium—drug-loaded PCL mixture was removed by aspiration. […] The viable cells were then counted by Guava ViaCount Assay.
smiles,measurement,value
"COc1cccc2c1C(=O)c1c(O)c3c(c(O)c1C2=O)C[C@@](O)(C(=O)CO)C[C@@H]3O[C@H]1C[C@H](N)[C@H](O)[C@H](C)O1 [free DXR, doxorubicin]",IC50,100 nM
